Measurements published in US20050192227A1, “Method for reducing the risk of cancer” (priority 1999, published 2005).

Columns and labels:
MCF-7 = conditions: ER+ breast cancer cell line MCF-7, in vitro; cited from earlier work
detectable tumors = experiment: Clinical trial of rhPTH(1-34) in postmenopausal women: incidence of cancer (patients with detectable tumors); format: in vivo, human; conditions: for number of patients with detectable tumors, breast carcinoma: 17-23 months, placebo 7; for number of patients with detectable tumors, skin carcinoma: placebo 5; for number of patients with detectable tumors, all cancers except breast carcinoma: placebo 16; for number of patients with detectable tumors, all cancers: placebo 21
Description: • Number of Subjects: rhPTH(1-34): 1093 enrolled, 848 finished. • Placebo: 544 enrolled, 447 finished. • Diagnosis and Inclusion Criteria: Women ages 30 to 85 years, postmenopausal for a minimum of 5 years, with a minimum of one moderate or two mild atraumatic vertebral fractures. • Dosage and Administration: Test Product (blinded) • rhPTH(1-34): 20 μg/day, given subcutaneously • rhPTH(1-34): 40 μg/day, given subcutaneously • Reference Therapy (blinded) • Placebo study material for injection • Duration of Treatment: rhPTH(1-34): 17-23 months (excluding 6-month run-in phase) • Placebo: 17-23 months (excluding 6-month run-in phase)
Criteria for Evaluation: Spine x-ray; serum biological markers (calcium, bon-specific alkaline phosphatase, procollagen I carboxy-terminal propeptide); urine markers (calcium, N-telopeptide, free deoxypyridinoline); 1,25-dihydroxyvitanin D; bone mineral density: spine, hip, wrist, and total body; height; population pharmacokinetics; bone biopsy (selected study sites).
Table 1 illustrates data showing the reduction in the number of patients having detectable tumors upon treatment with PTH.

biochemical bone markers = experiment: Applicant's dose studies in human subjects: changes in biochemical bone markers; format: in vivo
Description: (§1) Therefore, for reducing risk on cancer in men or women with hPTH(1-34) according to the present invention, preferably one should use a daily dose greater than about 6 μg, more preferably at least about 15 μg. […] Therefore, any daily dose of hPTH(1-34) in the range of greater than about 6 μg to at least about 40 μg would be effective for reduction of the risk of cancer, according to the present method of using this form of parathyroid hormone. […] Accordingly, the present invention provides a method for reducing the risk of cancer in a human subject at risk thereof, comprising administering to the subject a parathyroid hormone. Preferably, the parathyroid hormone consists of amino acid sequence 1-34 of human parathyroid hormone. This hormone may be administered with or without concurrent administration of an antiresorptive agent other than vitamin D or calcium. Preferably, the hormone is administered in a daily dose in the range of about 15 μg to about 40 μg, for at least about 12 months. In this method for reducing the risk of cancer, the hormone may be administered for longer periods of several years (e.g., up to 3 years as in osteoporotic patients), including for the remaining life of a human subject identified as having a high risk of cancer.

[1] = Effectiveness of daily doses against osteoporosis in men and women; format: in vivo, human; conditions: daily doses of 20 μg and 40 μg compared
[2] = Undesirable side effects of daily doses in human subjects; format: in vivo; conditions: daily dose of about 20 μg compared with about 40 μg
Description: as §1

Substance	response of MCF-7 cells to PTHrP (MCF-7)	number of patients with detectable tumors, breast carcinoma (detectable tumors; PTH-20 (20 μg/day s.c., N = 541), p=0.017)	number of patients with detectable tumors, skin carcinoma (detectable tumors; PTH-20 (20 μg/day s.c., N = 541), p=0.532)	number of patients with detectable tumors, all cancers except breast carcinoma (detectable tumors; PTH-20 (20 μg/day s.c., N = 541))	number of patients with detectable tumors, all cancers (detectable tumors; PTH-20 (20 μg/day s.c., N = 541), p=0.03)	number of patients with detectable tumors, breast carcinoma (detectable tumors; PTH-40 (40 μg/day s.c., N = 522), p=0.017)	number of patients with detectable tumors, skin carcinoma (detectable tumors; PTH-40 (40 μg/day s.c., N = 522), p=0.532)	number of patients with detectable tumors, all cancers except breast carcinoma (detectable tumors; PTH-40 (40 μg/day s.c., N = 522))	number of patients with detectable tumors, all cancers (detectable tumors; PTH-40 (40 μg/day s.c., N = 522), p=0.03)	percentage of patients with any form of detectable cancer (detectable tumors; all PTH-treated patients (20 and 40 μg/day pooled) vs. placebo 3.86%, p=0.03) [%]	percentage of patients with skin carcinoma (detectable tumors; all PTH-treated patients pooled vs. placebo 0.919%, p=0.532) [%]	percentage of patients with breast carcinoma (detectable tumors; all PTH-treated patients pooled vs. placebo 1.29%, p=0.017) [%]	percentage of patients with any form of detectable cancer, excluding breast carcinoma (detectable tumors; all PTH-treated patients pooled vs. placebo 2.94%) [%]	lowest tested dose found to be biologically active, as indicated by detectable changes in biochemical bone markers (biochemical bone markers)	effects on biochemical bone markers (biochemical bone markers; 6 μg dose)	effectiveness against osteoporosis [1]	undesirable side effects [2]
PTHrP: PTH-related peptide/protein	proliferates	–	–	–	–	–	–	–	–	–	–	–	–	–	–	–	–
rhPTH(1-34)	–	1	2	7	8	1	4	10	11	1.79	0.564	0.188	1.60	about 15 μg	no significant effects	similarly effective	fewer undesirable side effects
